Test results published in patent publication EP1388013B1, “COMPOSITIONS AND METHODS FOR THE USE OF FIBRONECTIN FRAGMENTS IN THE DIAGNOSIS OF CANCER” (THE REGENTS OF THE UNIVERSITY OF MICHIGAN, priority 2001, dated 2002).
No end group written: not given here.

Tests used:
[1] = tested on: metastatic SUM-52 PE breast cancer cells; assay: SU-ECM invasion assay, SUM-52 PE cells; assay type: cell-based, human; settings: PHSRN sequence of fibronectin alone; Example 4
Method: Adult Strongylocentrotus purpuratus sea urchins were obtained from Pacific BioMarine, and their embryos were cultured to the early pluteus stage in artificial sea water at 15°C. SU-ECM were prepared from them by treatment with nonionic detergent and sterilized by dilution in the appropriate media.
Cells were harvested by rinsing in Hanks balanced salt solution, followed by brief treatment with 0.25% trypsin, 0.02% EDTA, and pelleting and resuspension in the appropriate medium with or without 5% FCS at a density of about 50,000 cells per ml. When appropriate, purified bovine plasma fibronectin (Sigma, St. Louis, Mo), purified 120 kDa chymotryptic fragment (Gibco BRL), PHSRN or PHSCN peptides (synthesized at the Biomedical Research Core Facilities of the University of Michigan), or GRGDSP or GRGESP peptides (Gibco BRL) were added to the resuspended cells prior to placement of the cells on SU-ECM. In each well of a plate used for an invasion assay, SU-ECM were placed in 0.5 ml of the appropriate medium, and 0.5ml of the resuspended cells dropped on their exterior surfaces. Invasion assays were incubated 1 to 16 hours prior to scoring. If some circumstances, invasion assays were fixed in phosphate-buffered saline (PBS) with 2% formaldehyde for 5 minutes at room temperature, then rinsed into PBS.
Invasion assays were coded and scored blindly by microscopic examination under phase contrast at 200- and 400-fold magnification. Each cell contacting an SU-ECM was scored for its position relative to the exterior or interior surfaces. A cell was judged to have invaded if it was located on an interior surface below the focal plane passing through the upper surface of the SU-ECM, but above the focal plane passing through its lower surface. The minimum viability of the cells in each assay was always ascertained at the time of assay by determining the fraction of spread, adherent cells on the bottom of each well scored.
An invasion frequency is defined as the fraction of cells in contact with basement membranes which were located in their interiors at the time of assay. Thus, an invasion frequency of 1 denotes invasion by 100% of the cells in contact with basement membranes. Invasion frequencies were determined multiple times for each cell type assayed. For each type of cell assayed the mean and standard deviation of the invasion frequencies were calculated.
The method of Example 4 is employed, with the addition of varying concentrations of the PHSCN peptide.
Thus, the procedure in Example 4 provides a method for determining the inhibitory potential of the PHSCN peptide by comparing the number of cell invasions in the presence of the PHSCN peptide, with the number of cell invasions in the absence of the PHSCN peptide.

[2] = tested on: Mouse muscle satellite cells; assay: SU-ECM invasion assay, muscle satellite cells; assay type: cell-based; settings: 1 microgram per ml, presence or absence of serum; Figure 13
From the text: In one example cells for the invasion assay are harvested by rinsing in Hanks' balanced salt solution, followed by brief treatment with 0.25% trypsin, 0.02% EDTA, and pelleting and resuspension in the appropriate medium with or without 5% FCS at a density of about 50,000 cells per ml. When appropriate, purified bovine plasma fibronectin (from Sigma, St. Louis, Mo), purified 120 kDa chymotryptic fragment (Gibco BRL) or PHSRN peptides (synthesized at the Biomedical Research Core Facilities of the University of Michigan) are added to the resuspended cells prior to placement of the cells on SU-ECM. […]
Invasion assays are coded and scored blindly by microscopic examination under phase contrast at 200- and 400-fold magnification. Each cell contacting an SU-ECM is scored for its position relative to the exterior or interior surfaces. […] The minimum viability of the cells in each assay is always ascertained at the time of assay by determining the fraction of spread, adherent cells on the bottom of each well scored.
An invasion frequency is defined as the fraction of cells in contact with basement membranes which are located in their interiors at the time of assay. […] Invasion frequencies are determined multiple times for each cell type assayed. For each type of cell assayed the mean and standard deviation of the invasion frequencies were calculated. […]

[3] = tested on: normal, neonatal fibroblasts; assay: Invasion of fibronectin-depleted Matrigel by fibroblasts; assay type: cell-based; settings: gelatin plus antibody panned Matrigel; Figure 2
Method: Anti-fibronectin antibody-coated wells: Wells of a 24-well plate were coated with an anti-fibronectin antibody. A mouse monoclonal antibody to human fibronectin was obtained from Oncogene Science (Catalog #CP13). Each well was incubated with 1 ml of antibody at a concentration of […] for 2 hours at room temperature. Each well was then incubated with a solution of 3% BSA in PBS for 2 hours at room temperature. Following the two incubation periods, the wells were thoroughly washed with PBS and stored at -20 °C until use.
Depleting Matrigel of Fibronectin: Matrigel was panned over eight gelatin-coated wells (as described above in Example 2) to remove most of the fibronectin and its fragments. Thereafter, the Matrigel was placed in the antibody-coated wells to remove any remaining fragments of fibronectin which contain the cell-binding domain but not the gelatin-binding domain. The Matrigel was incubated in an ice bucket on an orbital shaker at 4 °C for 2 hours. Once the Matrigel was depleted, it was collected in Eppendorf tubes. The fibronectin-depleted Matrigel was plated on a 48-well plate (150 µl/well), sterilized under a UV light for 10 minutes and incubated at 37 °C overnight. The Matrigel formed a gel and the following day, cells were added to the wells. […]

For PHSRN [PHSRN], the “induction of SUM-52 cell invasion of SU-ECM” value [1] was “induced to invade”, the “induction of SU-ECM invasion by muscle satellite cells” value [2] was “induced the invasion” and the “induction of fibroblast invasiveness on fibronectin-depleted Matrigel” value [3] was “could be induced”.
